Assay results as given in patent US20260242340A1, “COMPOUNDS AND METHODS FOR TREATING PROTEIN AGGREGATION DISEASES” (ACELOT, INC., priority 2023, published 2026).

What was measured:
[1] = biological target: TDP-43 peptide (amino acids 307-319) (Homo sapiens, UniProt Q13148); assay: TDP-43 thioflavin T assay; type: biochemical; details: ThT RFU at 15 hours; 100% = TDP-43 + DMSO
Method: The effect of compounds on fibril formation by TDP-43 peptide (amino acids 307-319) was screened using a thioflavin T (ThT) fluorescence assay in a 96-well plate format. The monomeric form of TDP-43 307-319 was stored in HFIP at −20° C. in 32 μL vials and then thawed on ice. After thawing a stock aliquot on ice, 16 μL of HFIP and 432 μL 100 mM ammonium acetate was added. This mix was pipetted three times. Three such prepared aliquots were combined to create a master mix. 400 μM of ThT stock was prepared by dissolving 31.8 mg ThT in 10 mL Milli-Q water to make […] stock. The 10 mM ThT stock was then diluted to 400 μM with Milli-Q water and stored at −20° C. until use. 20 μL aliquots of compounds were used as initial starting material. 98 μL of master mix was then added to each well of 96-well plate, and then 2 μL of compounds was added to each well testing a compound. The plate was spun at 4700×rpm to remove bubbles at 4° C., and then the plate measurements were collected. ThT fluorescence was measured through the bottom of the plate using 440- and 480-nm excitation and emission filters for 15 hours at 0.5-hour intervals. Each well was scanned at 5 points with a 1.25 mm distance between points. The relative fluorescence unit (RFU) at 15 hours was used to rank the percent of aggregation for all tested compounds.

[2] = biological target: T1, TDP-43 cytosolic aggregates (TDP-43-tGFP-U2OS cell line) (Homo sapiens, UniProt Q13148); assay: TDP-43 cytoplasmic aggregation assay; type: cell-based; details: 100 μM compound; TDP-43-tGFP-U2OS cells; lower = more potent
T1 construct: expressed in transfected cells; host or cells: U2OS (recombinant, IPTG-inducible TDP-43 expression)
Method: Recombinant TDP-43-tGFP-U2OS cell line was thawed (2×10^6 cells per T75) and was maintained in DMEM-F12 supplemented with 10% FBS at 37° C. in a humidified 5% CO2 atmosphere. Cells were plated in 96-well plates with a density of 10,000 cells (+/−2000 cells) per well. Cells were incubated with the test compounds and isopropyl β-D-1-thiogalactopyranoside (IPTG) 1 mM to induce TDP43 expression for 24 hours. The assays were carried out in triplicate. Cells were treated with 125-250 μM of sodium arsenite for 120 min and TDP-43 punctae formation was quantified in both cell cytoplasm and cell nucleus, in living cells. The nuclei were stained using Hoechst (0.5 μg/ml) and the fluorescence was measured using a Cell Insight High-Content Bioimager from Thermo Fisher. To detect the Hoechst, the filters used were 380/10 and 460/10 nm for excitation and emission, respectively, and to detect the TDP-43 punctae, the filters were 488/20 and 520/20 nm, respectively. The images were obtained with an objective of 20×. Cell quantification was performed delimitating the region of interest of the nuclei and after quantification the average of each triplicate was performed. For granule quantification the spot detector application from Cell Software delimitated 2 regions of interest, the nuclei and cytosol. This software quantified the average number of granules per nuclei and the average number of granules per cytosol in each well.

Aβ 1-42 = biological target: T2, Aβ 1-42 (Homo sapiens, UniProt P05067); assay: Aβ42 thioflavin T assay; type: biochemical; details: 50 μM compound, 5 μM Aβ 1-42, ThT RFU at 15 hours; 100% = Aβ + DMSO; read-out: Aβ42 % aggregation at 50 μM
T2 construct: The monomeric form of Aβ 1-42 (rPeptide, A1170-025) film; purchased rPeptide A1170-025
Method: The effect of compounds on fibril formation by Aβ 1-42 was screened using a thioflavin T (ThT) fluorescence assay in a 96-well plate format. The monomeric form of Aβ 1-42 (rPeptide, A1170-025) film was diluted with 10 mM NaOH to form a 1 mg/ml stock solution. This stock solution was then further diluted with cell culture grade water (Cytiva, SH30529.01) and 10×PBS (VWR, 97063-660) to a working concentration of 100 μM in 1×PBS on ice. Compounds were initially dissolved in 100% DMSO (MilliporeSigma, D2650) at room temperature to make a 10 mM stock and stored at −20° C. prior to the experiment. On the day of the experiment, the stock solution was diluted with 1×PBS to a concentration of 500 μM, containing 5% DMSO. The reaction mixture, containing 10 μM ThT […], 5 μM Aβ 1-42, and 1×PBS was prepared in 15 ml Falcon centrifuge tubes (Corning, 352070) and kept on ice during preparation. The reaction mixture was then dispensed into multiple wells of a 96-well half-area, low-binding polyethylene non-treated plate (Corning, 3880) with a clear bottom, at 90 μL per well. To each well, 10 μL of 500 μM compound stock was added, with three replicates per compound. To account for the presence of DMSO, 5% DMSO in 1×PBS was used as the vehicle control. The positive control consisted of 10 μM ThT, 5 μM Aβ 1-42, and 0.5% DMSO in 1×PBS, while the negative control consisted of 10 μM ThT and 0.5% DMSO in 1×PBS. The plates were sealed with polyester sealing tape (VWR, 89134-430) to prevent evaporation and then placed in a plate reader (Molecular Devices SpectraMax ID5) at 37° C. without agitation. ThT fluorescence was measured through the bottom of the plate using 440- and 480-nm excitation and emission filters for 15 hours at 0.5-hour intervals. Each well was scanned at 5 points with a 1.25 mm distance between points. The relative fluorescence unit (RFU) at 15 hours was used to rank the percent of aggregation for all tested compounds and controls.

alpha-synuclein = biological target: T3, alpha-synuclein (Homo sapiens, UniProt P37840); assay: Alpha-synuclein thioflavin T assay; type: biochemical; details: 250 μM compound on pre-formed aggregates of 50 μM alpha-synuclein, 24 hours; 100% = alpha synuclein + DMSO
T3 construct: purchased Proteos RP-003
Method: Recombinant alpha-synuclein monomeric protein was procured from Proteos (catalog no. RP-003, 10 mg/ml or 700 μM concentration). Prior to aggregation, the protein was centrifuged at 10,000 rpm for 5 minutes to remove any pre-existing aggregates. The stock solution was then diluted to 50 μM concentration in filtered 1×PBS and allowed to aggregate with continuous shaking at 1000 rpm on a thermomixer for 96 hours at 37° C. After 96 hours, the ThT fluorescence was checked for the sample to confirm aggregate formation using ThT, a well-known amyloid marker dye. The ThT active aggregates were then used for high-throughput small molecule inhibitor screening. For screening small molecule disaggregators, 10 mM DMSO stock solutions of small molecules were diluted to 250 μM in the reaction mix containing 20 μM ThT and aggregates formed by 50 μM alpha-synuclein. As a positive/vehicle control, 100% DMSO stock was diluted to 2.5% to match the DMSO in the small molecule conditions. ThT fluorescence assay was performed for 24 hours with 3 replicates per sample in a 384 well plate (Corning low volume black/clear flat bottom) on a microplate reader (Molecular Devices SpectraMax iD5 or BioTek Agilent Synergy Neo2) using excitation wavelength of 440 nm and emission wavelength of 490 nm. The temperature was maintained at 37° C. and the plate was continuously shaken throughout the measurement. All data were plotted and analyzed in GraphPad Prism.

T1 sequence (Q13148 whole entry): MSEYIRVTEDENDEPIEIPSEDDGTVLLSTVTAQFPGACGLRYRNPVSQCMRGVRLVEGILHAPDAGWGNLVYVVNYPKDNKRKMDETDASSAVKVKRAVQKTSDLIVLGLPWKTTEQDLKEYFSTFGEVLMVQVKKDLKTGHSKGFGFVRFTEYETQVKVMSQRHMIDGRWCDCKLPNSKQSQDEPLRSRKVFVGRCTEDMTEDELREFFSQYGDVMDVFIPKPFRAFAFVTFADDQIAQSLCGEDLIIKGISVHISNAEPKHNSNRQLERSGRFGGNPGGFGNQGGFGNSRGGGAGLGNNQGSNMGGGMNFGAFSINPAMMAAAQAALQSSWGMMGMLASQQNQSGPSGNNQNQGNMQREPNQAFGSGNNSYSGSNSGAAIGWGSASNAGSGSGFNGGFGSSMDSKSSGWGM
T2 sequence (P05067 672-713 limits assumed): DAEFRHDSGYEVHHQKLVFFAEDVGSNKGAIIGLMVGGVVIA

Compound | % aggregation TDP-43 ThT at 50 μM TDP-43 [1] | % remaining TDP-43 cytosolic aggregates after 100 μM compound addition [2] | activity at 50 µM (Aβ 1-42) | % alpha synuclein aggregation as measured on ThT (alpha-synuclein)
CC(=O)Nc1ccc2c(c1)CN(CCc1ccc(O)c(Cl)c1)C2 [Compound 12, N-(2-(3-Chloro-4-hydroxyphenethyl)isoindolin-5-yl) acetamide] | 43.5% |  |  | 
CNC(=O)c1ccc2c(c1)CCN(CCc1cccc(Cl)c1)C2 [Compound 4, 2-(3-chlorophenethyl)-N-methyl-1.2.3.4-tetrahydroisoquinoline-6-carboxamide] |  | 59.1% | 74.6% | >99.9%
CC(=O)Nc1ccc2c(c1)CN(CCc1cccc(Cl)c1)CC2 [Compound 6, N-(2-(3-Chlorophenethyl)-1,2,3,4-tetrahydroisoquinolin-7-yl) acetamide] | 73.1% | 93.7% | 59.7% | >99.9%
CC(=O)Nc1ccc2c(c1)CN(CCc1ccc(O)c(C)c1)C2 [Compound 13, N-(2-(4-Hydroxy-3-methylphenethyl)isoindolin-5-yl) acetamide] | 48.8% |  |  | 
CC(=O)Nc1ccc2c(c1)CCN(CCc1ccccc1)C2 [Compound 3, N-(2-Phenethyl-1,2,3,4-tetrahydroisoquinolin-6-yl) acetamide] | 78.9% | >99.9% | > 99.9% | 82.8%
CCc1cc(CCN2Cc3ccc(NC(C)=O)cc3C2)ccc1O [Compound 14, N-(2-(3-Ethyl-4-hydroxyphenethyl)isoindolin-5-yl) acetamide] | 48.6% |  |  | 
Clc1cccc(CCN2CCc3ccccc3C2)c1 [Compound 5, 2-(3-chlorophenethyl)-1,2,3,4-tetrahydroisoquinoline] | 64.6% | 40.7% |  | 99%
CC(=O)N(C)c1ccc2c(c1)CN(CCc1ccc(O)c(Cl)c1)C2.Cl [Compound 15, N-(2-(3-Chloro-4-hydroxyphenethyl)isoindolin-5-yl)-N-methylacetamide hydrochloride] | 47.2% |  |  | 
